Experiments:
4T1 breast cancer cell = format: in vivo; settings: 2 μg/kg cisplatin (CDDP alone printed 2 g/kg), 50 μg/mouse CpG, 50 μg/mouse R848
B16-F10 mouse melanoma [1] = test: B16-F10 mouse melanoma model, small-volume tumors (Example 9); format: in vivo; settings: 4 mg/kg cisplatin, intraperitoneal injection, days 7, 14, 21
Procedure: This example further explored the effect of cisplatin combined with CR108 adjuvant on mouse melanoma. A B16-F10 mouse melanoma model was constructed by subcutaneously inoculating tumor cells on the right side of the back of the mice proximal to the hip position at 3×10^5 cells/mouse, […]
Specific mouse administration groups were as follows: (1) a PBS negative control group, (2) CDDP^Lo (2 μg/kg cisplatin), (3) CR108 (50 μg/mouse CpG1018 and 50 μg/mouse water-soluble R848), (4) CDDP^Lo+CR108 (2 μg/kg cisplatin, 50 μg/mouse CpG1018 and 50 μg/mouse water-soluble R848), (5) CDDP^Lo+C′ (2 μg/kg cisplatin and 50 μg/mouse CpG1018), (6) CDDP^Lo+R (2 μg/kg cisplatin and 50 μg/mouse water-soluble R848), and (7) CDDP^Hi (4 mg/kg cisplatin, regular cisplatin chemotherapeutic drug dose). Except for Group (7), which received a high dose of cisplatin by intraperitoneal injection, all other groups were administered by subcutaneous injection near the tumor. […]
On day 4 after the last administration, mice were sacrificed, tumor tissues of the mice were separated and weighed using an analytical balance; the weights were recorded, and the tumors were photographed for recording. […]

B16-F10 mouse melanoma [2] = test: Large-volume B16-F10 melanoma model, intratumoral injection: tumor volume and survival (Examples 10-13); format: in vivo
Procedure: To establish a B16-F10 mouse melanoma model, the tumor cells were inoculated at 3×10^5 cells/mouse. Once the tumors reached an appropriate size with an average of about 200 mm^3, suitable mice were selected based on the tumor size and body weight and given drugs according to the following groups. […] Specific groups were as follows: Group G1, normal saline (NS) control group: mice were treated once a week; Group G2: mice received an intratumoral injection of CDDP, followed by an intratumoral injection of CR108 two days later, once a week; Group G3: for each administration cycle, mice first received an intratumoral injection of CDDP, followed by an intratumoral injection of CR108 two days later, which was repeated every other day, with four administrations constituting one cycle, and after a one-week interruption, the next administration cycle was repeated; and Group G4: after CDDP and CR108 were mixed, mice received an intratumoral injection of the mixture, twice a week. After the administration was completed according to the flowchart, the administration was stopped, and the tumor size and physiological states of the mice were monitored during this period. When the tumor volume of each mouse exceeded 2000 mm^3 for the first time or the body weight of the animal was less than 80% of the body weight before the first administration, it was considered an ethical death, and the animal was euthanized. The remaining mice continued to be observed.
Experimental groups were as follows: (1) a normal saline control group, with the same administration protocol as that in Group G1 of Example 10; (2) CDDP^Hi+CR108 (at a cisplatin dose of 0.4 mg/kg), with the same administration protocol as that in Group G2 of Example 10 (qw); (3) CDDP^Lo+CR108 (at a cisplatin dose of 2 μg/kg), with the same administration protocol as that in Group G3 of Example 10 (qod); and (4) CDDP^Hi+CR108 (0.4 mg/kg cisplatin), with the same administration protocol as that in Group G3 of Example 10 (qod); the dose of CR108 used in each group was 50 μg/mouse CpG1018 and 50 μg/mouse water-soluble R848. […]

[3] = tested on: BALB/c mouse spleen cells; test: In vitro stimulation of mouse spleen cells to secrete TNF-α; format: cell-based; settings: FIG. 9; stimulated 18-20 h; research-grade versus pharmaceutical grade reagent
Procedure: Drug preparation: The preparation and use of the research-grade reagents CpG1826 and R848 (water soluble) were the same as those in Example 1; the pharmaceutical agent R848 (lipid soluble) was dissolved in DMSO to prepare a 10 mg/mL stock solution, 0.1 mL of the stock solution was taken for each administration, the volume was brought to 1 mL, and a 1 mg/mL solution was prepared; CpG1018 was prepared at 1 mg/ml with PBS before each administration.
The spleens of three blank BABL/c mice were added to a 30 mm cell culture dish, 1640 medium was added, and the resulting mixture was ground, filtered through a copper screen, and centrifuged at 1500 rpm for 3 min. The supernatant was discarded, 2 mL of a red blood cell lysis buffer was added, and the samples were left to stand for 2 min, terminated with 4 mL of 1640+10% FBS, and centrifuged at 1500 rpm for 3 min. The supernatant was discarded, the samples were resuspended in 1640+10% FBS, and the cells were counted. The cells were plated in a 96-well cell culture plate at 2×10^6 cells/well, with 200 μL of culture medium per well. […] After the cells were stimulated for 18-20 h, the cell culture supernatant was collected, and the expression of cytokines in each 10^6 mouse spleen cells was determined by using a mouse TNF-α detection kit (purchased from NeoBioscience Technology Co., Ltd., Catalog No. EMC102a.96) according to the instructions.

Compound | tumor volume growth curve (4T1 breast cancer cell; Example 7, FIG. 12, 6 mice per group) | tumor weight (4T1 breast cancer cell; Example 7, FIG. 13, end of the experiment) | mouse death during the administration period (B16-F10 mouse melanoma [1]) | tumor volume compared with the normal saline control group (B16-F10 mouse melanoma [2]; Example 12, FIG. 31, day 28, CDDP 4 mg/kg once a week, CR108 G3 protocol, CDDP+CR108 0.4 mg/kg cisplatin G3 protocol) | day on which all mice were euthanized due to tumor volume exceeding 2000 mm^3 (B16-F10 mouse melanoma [2]; Example 12, 4 mg/kg CDDP once a week) | median survival time (B16-F10 mouse melanoma [2]; Example 12, CDDP 4 mg/kg once a week, CR108 alone G3 protocol, CDDP+CR108 0.4 mg/kg CDDP, not counted on day 45, saline control 26 days) | levels of TNF-α cytokines produced from mouse spleen cells stimulated in vitro [3]
[NH2][Pt]([NH2])([Cl])[Cl] [CDDP, cisplatin] | grew rapidly | too large and overweight | One mouse | significantly lower than that in the normal saline control group | 36 days | 36 days | –
CCOCc1nc2c(N)nc3ccccc3c2n1CC(C)(C)O [R848 (water soluble)] | – | – | – | – | – | – | comparable
